Results as given in ChEMBL document CHEMBL2203120, “Contribution to investigation of antimicrobial activity of styrylquinolines” (Bioorg Med Chem, 2012).
Converted amounts (≈) assume the structure as drawn.

Assays:
[1] = test system: Trichophyton mentagrophytes; assay: Antimicrobial activity against Trichophyton mentagrophytes 445 after 120 hrs by broth microdilution test; assay type: functional; details: Trichophyton mentagrophytes, 445, 120 h
Lichtheimia corymbifera [2] = assay: Antimicrobial activity against Absidia corymbifera 272 after 48 hrs by broth microdilution test; assay type: functional; details: Lichtheimia corymbifera, 272, 48 h
Aspergillus fumigatus [3] = assay: Antimicrobial activity against Aspergillus fumigatus 231 after 48 hrs by broth microdilution test; assay type: functional; details: Aspergillus fumigatus, 231, 48 h
Trichosporon beigelii [4] = assay: Antimicrobial activity against Trichosporon beigelii 1188 after 48 hrs by broth microdilution test; assay type: functional; details: Trichosporon beigelii, 1188, 48 h
Nakaseomyces glabratus [5] = assay: Antimicrobial activity against Candida glabrata 20/I after 48 hrs by broth microdilution test; assay type: functional
Pichia kudriavzevii [6] = assay: Antimicrobial activity against Candida krusei ATCC 6258 after 48 hrs by broth microdilution test; assay type: functional; details: ATCC 6258, 48 h
Candida tropicalis [7] = assay: Antimicrobial activity against Candida tropicalis 156 after 48 hrs by broth microdilution test; assay type: functional; details: Candida tropicalis, 156, 48 h
[8] = Lipophilicity, log P of compound by RP-HPLC analysis; assay type: physicochemical
[9] = test system: Staphylococcus epidermidis; assay: Antimicrobial activity against Staphylococcus epidermidis H 6966/08 after 48 hrs by broth microdilution method; assay type: functional; details: H 6966/08, 48 h
[10] = test system: Staphylococcus epidermidis; assay: Antimicrobial activity against Staphylococcus epidermidis H 6966/08 after 24 hrs by broth microdilution method; assay type: functional; details: H 6966/08, 24 h
Staphylococcus aureus [11] = assay: Antimicrobial activity against methicillin-resistant Staphylococcus aureus H 5996/08 after 48 hrs by broth microdilution method; assay type: functional; details: H 5996/08, 48 h
Staphylococcus aureus [12] = assay: Antimicrobial activity against methicillin-resistant Staphylococcus aureus H 5996/08 after 24 hrs by broth microdilution method; assay type: functional; details: H 5996/08, 24 h
Staphylococcus aureus [13] = assay: Antimicrobial activity against Staphylococcus aureus CCM 4516/08 after 48 hrs by broth microdilution method; assay type: functional; details: CCM 4516/08, 48 h
Staphylococcus aureus [14] = assay: Antimicrobial activity against Staphylococcus aureus CCM 4516/08 after 24 hrs by broth microdilution method; assay type: functional; details: CCM 4516/08, 24 h
Candida albicans [15] = assay: Antimicrobial activity against Candida albicans ATCC 44859 after 48 hrs by broth microdilution test; assay type: functional; details: ATCC 44859, 48 h
[16] = test system: Trichophyton mentagrophytes; assay: Antimicrobial activity against Trichophyton mentagrophytes 445 after 72 hrs by broth microdilution test; assay type: functional; details: Trichophyton mentagrophytes, 445, 72 h
Lichtheimia corymbifera [17] = assay: Antimicrobial activity against Absidia corymbifera 272 after 24 hrs by broth microdilution test; assay type: functional; details: Lichtheimia corymbifera, 272, 24 h
Aspergillus fumigatus [18] = assay: Antimicrobial activity against Aspergillus fumigatus 231 after 24 hrs by broth microdilution test; assay type: functional; details: Aspergillus fumigatus, 231, 24 h
Trichosporon beigelii [19] = assay: Antimicrobial activity against Trichosporon beigelii 1188 after 24 hrs by broth microdilution test; assay type: functional; details: Trichosporon beigelii, 1188, 24 h
Nakaseomyces glabratus [20] = assay: Antimicrobial activity against Candida glabrata 20/I after 24 hrs by broth microdilution test; assay type: functional
Pichia kudriavzevii [21] = assay: Antimicrobial activity against Candida krusei ATCC 6258 after 24 hrs by broth microdilution test; assay type: functional; details: ATCC 6258, 24 h
Candida tropicalis [22] = assay: Antimicrobial activity against Candida tropicalis 156 after 24 hrs by broth microdilution test; assay type: functional; details: Candida tropicalis, 156, 24 h
Candida albicans [23] = assay: Antimicrobial activity against Candida albicans ATCC 44859 after 24 hrs by broth microdilution test; assay type: functional; details: ATCC 44859, 24 h

Row | SMILES | MIC50 (Lichtheimia corymbifera [2]) [µM] | MIC50 (Aspergillus fumigatus [3]) [µM] | MIC80 (Trichosporon beigelii [4]) [µM] | MIC80 (Nakaseomyces glabratus [5]) [µM] | MIC80 (Pichia kudriavzevii [6]) [µM] | MIC80 (Candida tropicalis [7]) [µM] | logP [8] | MIC90 [9] [µM] | MIC90 [10] [µM] | MIC90 (Staphylococcus aureus [11]) [µM] | MIC90 (Staphylococcus aureus [12]) [µM] | MIC90 (Staphylococcus aureus [13]) [µM] | MIC90 (Staphylococcus aureus [14]) [µM] | MIC80 (Candida albicans [15]) [µM] | MIC50 (Lichtheimia corymbifera [17]) [µM] | MIC50 (Aspergillus fumigatus [18]) [µM] | MIC80 (Trichosporon beigelii [19]) [µM] | MIC80 (Nakaseomyces glabratus [20]) [µM] | MIC80 (Candida tropicalis [22]) [µM] | MIC80 (Candida albicans [23]) [µM] | further results
1 | Oc1cccc(/C=C/c2ccc3cccc(O)c3n2)c1 | > 125 | > 125 | > 125 | > 125 | > 125 | > 125 | 3.95 | 500 (≈ 132 µg/mL) | 250 (≈ 65.8 µg/mL) | 125 (≈ 32.9 µg/mL) | 125 (≈ 32.9 µg/mL) | 125 (≈ 32.9 µg/mL) | 125 (≈ 32.9 µg/mL) | > 125 | > 125 | > 125 | > 125 | > 125 | > 125 | > 125 | MIC50 [1]: > 125 µM; MIC50 [16]: > 125 µM; MIC80 (Pichia kudriavzevii [21]): > 125 µM
2 | Oc1cc(O)cc(/C=C/c2ccc3c(Cl)cc(Cl)c(O)c3n2)c1 | – | – | > 125 | > 125 | > 125 | > 125 | 4.68 | 125 (≈ 43.5 µg/mL) | 31.2 (≈ 10.9 µg/mL) | 125 (≈ 43.5 µg/mL) | 125 (≈ 43.5 µg/mL) | 125 (≈ 43.5 µg/mL) | 125 (≈ 43.5 µg/mL) | > 125 | – | – | > 125 | > 125 | > 125 | > 125 | MIC80 (Pichia kudriavzevii [21]): > 125 µM
3 | CCOc1ccc(/C=C/c2ccc3c(Cl)cc(Cl)c(O)c3n2)cc1 | > 125 | > 125 | 125 (≈ 45 µg/mL) | > 125 | 125 (≈ 45 µg/mL) | 125 (≈ 45 µg/mL) | 5.67 | 125 (≈ 45 µg/mL) | 125 (≈ 45 µg/mL) | 125 (≈ 45 µg/mL) | 125 (≈ 45 µg/mL) | 125 (≈ 45 µg/mL) | 125 (≈ 45 µg/mL) | 125 (≈ 45 µg/mL) | > 125 | > 125 | 125 (≈ 45 µg/mL) | > 125 | 125 (≈ 45 µg/mL) | 125 (≈ 45 µg/mL) | MIC50 [1]: 125 µM (≈ 45 µg/mL); MIC50 [16]: 125 µM (≈ 45 µg/mL); MIC80 (Pichia kudriavzevii [21]): 125 µM (≈ 45 µg/mL)
4 | Oc1ccc(/C=C/c2ccc3cccc(O)c3n2)c(O)c1 | > 125 | 125 (≈ 34.9 µg/mL) | 125 (≈ 34.9 µg/mL) | 125 (≈ 34.9 µg/mL) | 125 (≈ 34.9 µg/mL) | > 125 | 3.56 | 250 (≈ 69.8 µg/mL) | 125 (≈ 34.9 µg/mL) | 62.5 (≈ 17.5 µg/mL) | 31.2 (≈ 8.73 µg/mL) | 31.2 (≈ 8.73 µg/mL) | 15.6 (≈ 4.36 µg/mL) | > 125 | > 125 | 125 (≈ 34.9 µg/mL) | 62.5 (≈ 17.5 µg/mL) | 62.5 (≈ 17.5 µg/mL) | > 125 | 125 (≈ 34.9 µg/mL) | MIC50 [1]: 62.5 µM (≈ 17.5 µg/mL); MIC50 [16]: 31.2 µM (≈ 8.73 µg/mL); MIC80 (Pichia kudriavzevii [21]): 62.5 µM (≈ 17.5 µg/mL)
5 | Oc1ccc(/C=C/c2ccc3c(Cl)cc(Cl)c(O)c3n2)cc1 | – | – | > 125 | > 125 | > 125 | > 125 | 5.07 | 62.5 (≈ 20.8 µg/mL) | 62.5 (≈ 20.8 µg/mL) | 31.2 (≈ 10.4 µg/mL) | 31.2 (≈ 10.4 µg/mL) | 15.6 (≈ 5.19 µg/mL) | 7.81 (≈ 2.59 µg/mL) | > 125 | – | – | – | – | – | – | –
6 | Oc1ccccc1/C=C/c1ccc2cccc(O)c2n1 | > 500 | > 500 | 62.5 (≈ 16.5 µg/mL) | 31.2 (≈ 8.23 µg/mL) | 62.5 (≈ 16.5 µg/mL) | 500 (≈ 132 µg/mL) | 3.95 | 125 (≈ 32.9 µg/mL) | 62.5 (≈ 16.5 µg/mL) | 125 (≈ 32.9 µg/mL) | 62.5 (≈ 16.5 µg/mL) | 62.5 (≈ 16.5 µg/mL) | 62.5 (≈ 16.5 µg/mL) | 62.5 (≈ 16.5 µg/mL) | 62.5 (≈ 16.5 µg/mL) | 500 (≈ 132 µg/mL) | 31.2 (≈ 8.23 µg/mL) | 31.2 (≈ 8.23 µg/mL) | 125 (≈ 32.9 µg/mL) | 31.2 (≈ 8.23 µg/mL) | MIC50 [1]: 62.5 µM (≈ 16.5 µg/mL); MIC50 [16]: 31.2 µM (≈ 8.23 µg/mL); MIC80 (Pichia kudriavzevii [21]): 31.2 µM (≈ 8.23 µg/mL)
7 | OC(Cn1cncn1)(Cn1cncn1)c1ccc(F)cc1F [FLUCONAZOLE] | > 125 | > 125 | 0.48 (≈ 0.147 µg/mL) | – | – | > 125 | – | – | – | – | – | – | – | 0.12 (≈ 0.0368 µg/mL) | > 125 | > 125 | 0.24 (≈ 0.0735 µg/mL) | 0.98 (≈ 0.3 µg/mL) | 0.12 (≈ 0.0368 µg/mL) | 0.06 (≈ 0.0184 µg/mL) | –
8 | CCOc1ccccc1/C=C/c1ccc2c(Cl)cc(Cl)c(O)c2n1 | 15.6 (≈ 5.63 µg/mL) | 3.9 (≈ 1.4 µg/mL) | 1.95 (≈ 0.702 µg/mL) | 1.95 (≈ 0.702 µg/mL) | 3.9 (≈ 1.4 µg/mL) | 0.98 (≈ 0.353 µg/mL) | 5.67 | 7.81 (≈ 2.81 µg/mL) | 3.9 (≈ 1.4 µg/mL) | 7.81 (≈ 2.81 µg/mL) | 3.9 (≈ 1.4 µg/mL) | 7.81 (≈ 2.81 µg/mL) | 3.9 (≈ 1.4 µg/mL) | 0.98 (≈ 0.353 µg/mL) | 15.6 (≈ 5.63 µg/mL) | 3.9 (≈ 1.4 µg/mL) | 0.49 (≈ 0.177 µg/mL) | 0.98 (≈ 0.353 µg/mL) | 0.98 (≈ 0.353 µg/mL) | 0.49 (≈ 0.177 µg/mL) | MIC50 [1]: 1.52 µM (≈ 0.548 µg/mL); MIC50 [16]: 1.39 µM (≈ 0.501 µg/mL); MIC80 (Pichia kudriavzevii [21]): 0.98 µM (≈ 0.353 µg/mL)
